Experiments:
Assay in all cases: combination Emax (second highest fraction inhibited in the dose matrix, 72 h); higher = more inhibition; extreme values may be limits of the assay
C32 (Melanoma) = system: C32 (Melanoma)
How it was run: (§1)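 After 24 hours at 37°C and 5% CO2 in 1536-well plates, cells in DMEM/F12 or RPMI plus 10% FBS received two-drug dose matrices for 72 hours. Viability came from CellTiter-Glo 2.0 luminescence and was scaled as inhibition, anchored at 0 by vehicle wells and at 1 by blank wells. Combination Emax is taken as the second-highest inhibition in the matrix, and Bliss excess as the observed combination effect less EA + EB − EA·EB, with EA and EB the single-agent effects.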

NCI-H2452 (Mesothelioma) = system: NCI-H2452 (Mesothelioma)
How it was run: as §1

[1] = system: NCI-H2009 (Lung Adenocarcinoma)
How it was run: as §1

[2] = system: MRK-nu-1 (Breast Carcinoma)
How it was run: as §1

[3] = system: KNS-62 (Squamous Cell Lung Carcinoma)
How it was run: as §1

[4] = system: NCI-H1648 (Lung Adenocarcinoma)
How it was run: as §1

[5] = system: BC-1 (B-Cell Non-Hodgkin's Lymphoma)
How it was run: as §1

A375 (Melanoma) = system: A375 (Melanoma)
How it was run: as §1

[6] = system: L-363 (Plasma Cell Myeloma)
How it was run: as §1

[7] = system: NCI-H1435 (Non-Small Cell Lung Carcinoma)
How it was run: as §1

[8] = system: NCI-H2023 (Non-Small Cell Lung Carcinoma)
How it was run: as §1

GCIY (Gastric Carcinoma) = system: GCIY (Gastric Carcinoma)
How it was run: as §1

| Structure (SMILES) | combination Emax (C32 (Melanoma)) | combination Emax (NCI-H2452 (Mesothelioma)) | combination Emax [1] | combination Emax [2] | combination Emax [3] | combination Emax [4] | combination Emax [5] | combination Emax (A375 (Melanoma)) | combination Emax [6] | combination Emax [7] | combination Emax [8] | combination Emax (GCIY (Gastric Carcinoma)) |
| --- | --- | --- | --- | --- | --- | --- | --- | --- | --- | --- | --- | --- |
| C=CCn1c(=O)c2cnc(Nc3ccc(N4CCN(C)CC4)cc3)nc2n1-c1cccc(C(C)(C)O)n1 [AZD1775] + Nc1ccn([C@@H]2O[C@H](CO)[C@@H](O)C2(F)F)c(=O)n1 [Gemcitabine] (first compound max 1 µM, partner max 0.3 µM) | 0.701 | 0.693 | 0.907 | 0.688 | 0.561 | 0.643 | 0.995 | 0.966 | 0.983 | 0.345 | 0.656 | 0.764 |
| CN(CCO)CC[C@H](CSc1ccccc1)Nc1ccc(S(=O)(=O)NC(=O)c2ccc(N3CCC([C@@H](O)c4ccccc4-c4ccc(Cl)cc4)CC3)cc2)cc1S(=O)(=O)C(F)(F)F [AZD4320] + CS(=O)(=O)CCNCc1ccc(-c2ccc3ncnc(Nc4ccc(OCc5cccc(F)c5)c(Cl)c4)c3c2)o1 [Lapatinib] (first compound max 1 µM, 7x7, partner max 10 µM) | 0.344 | 0.581 | 0.349 | 0.387 | 0.291 | 0.952 | 0.961 | 0.413 | 0.154 | 0.953 | 0.301 | 0.956 |
| Cc1c2c(nn1C)CSCc1cc(n(C)n1)CSc1cc(c3ccccc3c1)OCCCc1c(C(=O)O)n(C)c3c-2c(Cl)ccc13 [AZD5991] + CC(=O)O[C@H]1C(=O)[C@@]2(C)[C@H]([C@H](OC(=O)c3ccccc3)[C@]3(O)C[C@H](OC(=O)[C@H](O)[C@@H](NC(=O)c4ccccc4)c4ccccc4)C(C)=C1C3(C)C)[C@]1(OC(C)=O)CO[C@@H]1C[C@@H]2O [Paclitaxel] (first compound max 1 µM, 7x7, partner max 3 µM) | 0.654 | 0.838 | 0.715 | 1 | 0.6 | 0.929 | 1 | 0.787 | 1 | 0.219 | 0.537 | 0.686 |
| Cc1c2c(nn1C)CSCc1cc(n(C)n1)CSc1cc(c3ccccc3c1)OCCCc1c(C(=O)O)n(C)c3c-2c(Cl)ccc13 [AZD5991] + CS(=O)(=O)CCNCc1ccc(-c2ccc3ncnc(Nc4ccc(OCc5cccc(F)c5)c(Cl)c4)c3c2)o1 [Lapatinib] (first compound max 1 µM, 7x7, partner max 10 µM) | 0.228 | 0.414 | 0.237 | 1 | 0.213 | 0.895 | 1 | 0.318 | 0.993 | 0.219 | 0.284 | 0.447 |
| Cc1c2c(nn1C)CSCc1cc(n(C)n1)CSc1cc(c3ccccc3c1)OCCCc1c(C(=O)O)n(C)c3c-2c(Cl)ccc13 [AZD5991] + Nc1ccn([C@@H]2O[C@H](CO)[C@@H](O)C2(F)F)c(=O)n1 [Gemcitabine] (first compound max 1 µM, 7x7, partner max 0.3 µM) | 0.762 | 0.319 | 0.487 | 1 | 0.413 | 0.5 | 1 | 0.961 | 0.999 | 0.317 | 0.612 | 0.649 |
| C[C@@H]1COCCN1c1cc(C2([S@](C)(=N)=O)CC2)nc(-c2ccnc3[nH]ccc23)n1 [AZD6738] + C1CC(C1)(C(=O)[O-])C(=O)[O-].N.N.[Pt+2] [Carboplatin] (first compound max 10 µM, 7x7, partner max 10 µM) | 0.601 | 0.432 | 0.466 | 0.6 | 0.438 | 0.571 | 0.849 | 0.521 | 0.528 | 0.136 | 0.608 | 0.643 |
| C[C@@H]1COCCN1c1cc(C2([S@](C)(=N)=O)CC2)nc(-c2ccnc3[nH]ccc23)n1 [AZD6738] + Nc1ccn([C@@H]2O[C@H](CO)[C@@H](O)C2(F)F)c(=O)n1 [Gemcitabine] (first compound max 10 µM, 7x7, partner max 0.3 µM) | 0.703 | 0.763 | 0.789 | 0.781 | 0.665 | 0.725 | 0.985 | 0.991 | 0.941 | 0.411 | 0.684 | 0.774 |
| C[C@@H](Nc1cc(F)cc(F)c1)c1cc(C(=O)N(C)C)cc2c(=O)cc(N3CCOCC3)oc12 [AZD8186] + C1CN(CCC1(C(=O)N[C@@H](CCO)C2=CC=C(C=C2)Cl)N)C3=NC=NC4=C3C=CN4 [AZD5363] (first compound max 10 µM, 7x7, partner max 10 µM) | 0.436 | 0.336 | 0.26 | 0.305 | 0.533 | 0.707 | 0.577 | 0.232 | 0.318 | 0.258 | 0.333 | 0.743 |
| C[C@@H](Oc1cc(-c2cnn(C3CCNCC3)c2)cnc1N)c1c(Cl)ccc(F)c1Cl [Crizotinib] + CC1=C(C(=CC=C1)Cl)NC(=O)C2=CN=C(S2)NC3=CC(=NC(=N3)C)N4CCN(CC4)CCO [Dasatinib] (first compound max 10 µM, 7x7, partner max 2 µM) | 0.425 | 0.744 | 0.88 | 0.218 | 0.302 | 0.908 | 0.94 | 0.502 | 0.632 | 0.255 | 0.607 | 0.863 |
| C[C@@H](Oc1cc(-c2cnn(C3CCNCC3)c2)cnc1N)c1c(Cl)ccc(F)c1Cl [Crizotinib] + Cn1cnc2c(F)c(Nc3ccc(Br)cc3Cl)c(C(=O)NOCCO)cc21 [Selumetinib] (first compound max 10 µM, 7x7, partner max 10 µM) | 0.995 | 0.551 | 0.664 | 0.224 | 0.369 | 0.58 | 0.838 | 0.938 | 0.871 | 0.136 | 0.57 | 0.46 |
| CS(=O)(=O)CCNCc1ccc(-c2ccc3ncnc(Nc4ccc(OCc5cccc(F)c5)c(Cl)c4)c3c2)o1 [Lapatinib] + Cn1cnc2c(F)c(Nc3ccc(Br)cc3Cl)c(C(=O)NOCCO)cc21 [Selumetinib] (first compound max 10 µM, 7x7, partner max 10 µM) | 0.935 | 0.466 | 0.53 | 0.441 | 0.626 | 0.764 | 0.787 | 0.736 | 0.104 | 0.559 | 0.297 | 0.543 |
| O=C(c1cc(Cc2n[nH]c(=O)c3ccccc23)ccc1F)N1CCN(C(=O)C2CC2)CC1 [Olaparib] + CN(CC[C@H](CSC1=CC=CC=C1)NC2=C(C=C(C=C2)S(=O)(=O)NC(=O)C3=CC=C(C=C3)N4CCC(CC4)[C@H](C5=CC=CC=C5C6=CC=C(C=C6)Cl)O)S(=O)(=O)C(F)(F)F)CCO [AZD4320] (first compound max 10 µM, 7x7, partner max 1 µM) | 0.253 | 0.182 | 0.112 | 0.395 | 0.153 | 0.359 | 0.348 | 0.24 | 0.403 | 0.729 | 0.165 | 0.643 |
| O=C(c1cc(Cc2n[nH]c(=O)c3ccccc23)ccc1F)N1CCN(C(=O)C2CC2)CC1 [Olaparib] + COc1nnc2ccc(N3CCC(c4ccc(OCCN5CCN(C)C(=O)[C@H]5C)cc4)CC3)nn12 [AZD5153] (first compound max 10 µM, 7x7, partner max 1 µM) | 0.22 | 0.407 | 0.374 | 0.467 | 0.436 | 0.684 | 0.873 | 0.425 | 0.468 | 0.223 | 0.344 | 0.487 |
| O=C(c1cc(Cc2n[nH]c(=O)c3ccccc23)ccc1F)N1CCN(C(=O)C2CC2)CC1 [Olaparib] + Cc1c2c(nn1C)CSCc1cc(n(C)n1)CSc1cc(c3ccccc3c1)OCCCc1c(C(=O)O)n(C)c3c-2c(Cl)ccc13 [AZD5991] (first compound max 10 µM, 7x7, partner max 1 µM) | 0.0885 | 0.165 | 0.107 | 1 | 0.128 | 0.384 | 1 | 0.163 | 0.989 | 0.117 | 0.12 | 0.181 |
| Cc1nc(-c2cn3c(n2)-c2ccc(-c4cnn(C(C)(C)C(N)=O)c4)cc2OCC3)n(C(C)C)n1 [Taselisib] + O=C(Nc1ccc2[nH]nc(-c3ccncc3)c2c1)[C@@H]1CCN(CC(=O)N2CCN(c3ccc(-c4ncccn4)cc3)CC2)C1 [SCH772984] (first compound max 10 µM, 7x7, partner max 5 µM) | 1 | 0.534 | 0.919 | 0.542 | 0.787 | 1 | 0.652 | 0.918 | 0.63 | 0.791 | 0.665 | 0.888 |
| CC1(C)CCC(CN2CCN(c3ccc(C(=O)NS(=O)(=O)c4ccc(NCC5CCOCC5)c([N+](=O)[O-])c4)c(Oc4cnc5[nH]ccc5c4)c3)CC2)=C(c2ccc(Cl)cc2)C1 [Venetoclax] + CS(=O)(=O)CCNCc1ccc(-c2ccc3ncnc(Nc4ccc(OCc5cccc(F)c5)c(Cl)c4)c3c2)o1 [Lapatinib] (first compound max 1 µM, 7x7, partner max 10 µM) | 0.209 | 0.29 | 0.151 | 0.114 | 0.186 | 0.624 | 0.904 | 0.169 | 0.133 | 0.195 | 0.195 | 0.276 |

Source: the supplement of paper PMC11061612
